Molecular target: T1, CFTR del Ex24 (Homo sapiens, UniProt P13569, DEL1292-1321)
T1 construct: expressed in transfected cells; host or cells: HEK 293 cells, transient transfection with Lipofectamine 2000
Assay: FLIPR membrane potential assay of CFTR function
Format: cell-based
Conditions: HEK 293 cells transiently transfected with CFTR del Ex24; activated by forskolin 10 uM; FIG. 1B
Description: HEK cells were transiently transfected with a construct bearing a CFTR transcript having exon 24 completely deleted from it (CFTR del Ex24). Transfection was carried out using Lipofectamine 2000 transfection reagent (Invitrogen) according to the lipofectamine 2000 reagent protocol using the following lipofectamine amounts: 96 well—0.15 μl, 6 well—3 μl, 10 mm plate—15 μl. HEK cells transfected with the CFTR del Ex24 construct were grown in 96-well (black, flat bottom; corning) plates. 48 hr post-transfection, CFTR channel function was analyzed using the FLIPR membrane potential assay as previously described (Molinski et al., 2015). Briefly, the cells were loaded with blue membrane potential dye (Molecular Devices), which can detect changes in transmembrane potential. The plate was then read in a fluorescence plate reader (BioTek Synergy H1) for baseline levels followed by CFTR stimulation using the cAMP agonist forskolin (10 μM; Sigma), DMSO vehicle was used as a negative control. CFTR-mediated depolarization of the plasma membrane was detected as an increase in fluorescence and hyperpolarization (or repolarization) as a decrease. […] FLIPR™ (Fluorescence Imaging Plate Reader) is a functional system that allows measuring changes in membrane potential by a fluorescent indicator. […]

T1 sequence (P13569 with tags, fused parts or gaps DEL1292-1321): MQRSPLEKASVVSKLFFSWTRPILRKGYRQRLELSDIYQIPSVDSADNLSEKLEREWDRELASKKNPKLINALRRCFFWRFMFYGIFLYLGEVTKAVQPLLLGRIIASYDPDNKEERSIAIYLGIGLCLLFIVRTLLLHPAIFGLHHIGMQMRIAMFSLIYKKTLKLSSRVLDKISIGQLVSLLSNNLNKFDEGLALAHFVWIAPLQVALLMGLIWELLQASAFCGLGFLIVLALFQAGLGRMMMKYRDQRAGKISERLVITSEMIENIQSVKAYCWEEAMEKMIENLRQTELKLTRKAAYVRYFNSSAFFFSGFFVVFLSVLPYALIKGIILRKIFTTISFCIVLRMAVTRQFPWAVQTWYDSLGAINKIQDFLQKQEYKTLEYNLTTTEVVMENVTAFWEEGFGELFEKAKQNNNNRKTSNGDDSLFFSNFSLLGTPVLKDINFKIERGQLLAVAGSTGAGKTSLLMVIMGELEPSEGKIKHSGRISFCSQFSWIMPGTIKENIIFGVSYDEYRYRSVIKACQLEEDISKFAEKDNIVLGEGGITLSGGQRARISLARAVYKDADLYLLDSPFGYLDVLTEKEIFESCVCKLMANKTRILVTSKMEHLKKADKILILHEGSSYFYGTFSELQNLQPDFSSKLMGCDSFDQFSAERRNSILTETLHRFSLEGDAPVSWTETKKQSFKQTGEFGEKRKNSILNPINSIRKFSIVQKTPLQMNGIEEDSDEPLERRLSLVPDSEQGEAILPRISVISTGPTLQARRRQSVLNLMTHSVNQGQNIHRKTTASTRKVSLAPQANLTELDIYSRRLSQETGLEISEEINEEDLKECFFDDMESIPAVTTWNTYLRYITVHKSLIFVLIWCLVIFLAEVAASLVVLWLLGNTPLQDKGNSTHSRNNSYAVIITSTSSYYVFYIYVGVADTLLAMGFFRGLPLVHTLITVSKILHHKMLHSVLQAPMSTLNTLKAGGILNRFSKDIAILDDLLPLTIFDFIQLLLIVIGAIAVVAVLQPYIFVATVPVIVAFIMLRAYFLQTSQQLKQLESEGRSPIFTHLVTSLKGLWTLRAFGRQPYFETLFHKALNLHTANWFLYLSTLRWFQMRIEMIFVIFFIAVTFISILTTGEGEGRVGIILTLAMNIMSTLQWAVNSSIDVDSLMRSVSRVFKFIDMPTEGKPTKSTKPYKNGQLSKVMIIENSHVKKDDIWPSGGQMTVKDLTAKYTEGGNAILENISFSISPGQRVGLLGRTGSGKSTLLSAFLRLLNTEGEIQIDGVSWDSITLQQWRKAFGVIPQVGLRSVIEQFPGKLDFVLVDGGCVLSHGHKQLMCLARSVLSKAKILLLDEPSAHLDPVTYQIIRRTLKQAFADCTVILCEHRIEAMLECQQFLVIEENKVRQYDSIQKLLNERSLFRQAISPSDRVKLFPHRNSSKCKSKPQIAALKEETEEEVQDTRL

channel activation: 50 % of WT
SMILES: CC(C)(C)c1cc(C(C)(C)C)c(NC(=O)c2c[nH]c3ccccc3c2=O)cc1O [VX-770, N-(2,4-Di-tert-butyl-5-hydroxyphenyl)-4-oxo-1,4-dihydroquinoline-3-carboxamide]

Source: patent US20220064647A1, “COMPOSITIONS AND METHODS FOR TREATING CYSTIC FIBROSIS” (SpliSense Ltd., priority 2019, published 2022)
